In paper PMC5650142, “GPR40 partial agonists and AgoPAMs: Differentiating effects on glucose and hormonal secretions in the rodent” (PLoS ONE, 2017):
“And” between values parts separate entries of the source, which are not always exact repeats. Identical values can stand only once. Like-named read-outs stand apart in the source and are kept apart here.

Tests used:
[1] = target: T1, mouse GPR40 (Mus musculus, UniProt Q76JU9); experiment: Mouse GPR40 IP1 accumulation assay; assay type: cell-based
T1 construct: expressed in transfected cells; host or cells: CHO-K1 (methods)
Procedure: (§1) Stable cell lines expressing human GPR40 (hGPR40/HEK293), mouse GPR40 (mGPR40/CHO-K1), and rat GPR40 (rGPR40/CHO-K1) were cultured in DMEM media supplemented with 10% FBS, glutamine, non-essential amino acids, and penicillin/streptomycin. hGPR40/HEK293 & mGPR40/CHO-K1 cell media was supplemented with […] G418 (Life Technologies), while rGPR40/CHO-K1 cells were grown in […] blasticidin plus […] hygromycin (Life Technologies). Cell stocks were maintained and grown in a sub-confluent state using standard cell culture procedures. The day before the experiment, the cells were harvested with non-enzymatic cell dissociation buffer and re-suspended in DMEM supplemented with 10% FBS, glutamine, non-essential amino acids, penicillin/streptomycin at 0.15, 0.2 and 0.3 million cells per ml for human, mouse, and rat GPR40, respectively. […] The seeded plates were incubated overnight at 37 C.
(§2) On the day of the experiment, the growth media was removed from the assay by gently patting the assay plates on an absorbent sheet and 10 μl of IP1 stimulation buffer (Cis Bio IP-one Tb HTRF kit) supplemented with 50 mM LiCl is added to each well. Test compounds dissolved in DMSO were serially diluted in ½ log increments starting from 2 mM or 0.2 mM and 50 nl of the compound dilution was acoustically added to each well (final starting concentration 10 μM or 1 μM). Plates were then incubated for 60 minutes at room temperature and 10 μl of detection buffer (prepared as described in the Tb kit) is added to each well. The plates are then incubated one additional hour at room temperature. […] For each assay, a standard curve plate in which IP1 is titrated is also included. […] The percent activity at each concentration of test compound is determined using 0% activation (basal activity) determined in those wells that contain DMSO alone, while 100% activity is determined in wells that contained a concentration of a partial allosteric agonist know to activate GPR40. The % activity is then plotted versus the concentration of test compound and the dose response curve fitted to a standard 4-parameter non-linear regression model using a custom in-house developed software package (Merck & Co., Inc., MRL, Kenilworth, NJ, USA). Maximal % activity and EC50 are then determined for each test compound.

[2] = target: T2, human GPR40 (Homo sapiens, UniProt O14842); experiment: Human GPR40 IP1 accumulation assay; assay type: cell-based; parameters: expressed in transfected cells
Procedure: as §1, §2

[3] = target: T3, rat GPR40 (Rattus norvegicus, UniProt Q8K3T4); experiment: Rat GPR40 IP1 accumulation assay; assay type: cell-based
T3 construct: expressed in transfected cells; host or cells: CHO-K1 (methods)
Procedure: as §1, §2

[4] = target: T2, human GPR40; experiment: GPR40 binding assay, partial agonist tracer [3H]L358; parameters: expressed in transfected cells; host or cells: CHO / CHO-K1 cells, membrane preparation; settings: radioligand L-001533358;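 for %Bound: 100% is tracer binding with DMSO alone and 0% is full displacement by a standard compound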
Procedure: Two small molecule tracers, the partial agonist [3H][…] and the AgoPAM [3H]25, are used to measure compound affinity at each site as described previously. Because of the allosteric coupling of the two sites and the nature of the assay, addition of a compound will either displace (binds to same site) or augment (binds to allosterically coupled site) radiotracer. Membranes expressing GPR40 were prepared from CHO cells stably expressing human GPR40. […] Sigma P8830) and were homogenized in 50 ml aliquots with a motor-driven glass Dounce homogenizer, 15 strokes at 1900 rpm on wet ice, repeating once. Homogenates were centrifuged at 2200 rpm for 10 min at 4°C. Supernatants were carefully removed and pooled. Homogenization and centrifugation were repeated until the debris pellet was translucent to maximize membrane recovery. Supernatants were then centrifuged at […] rpm for 20 min. at 4°C. […] Protein concentration was determined by Pierce BCA kit. […] The beads and membrane mixture is then vigorously mixed for 30 minutes at room temperature prior to addition to the assay. […] Next, 15 μl of the radioligand and 35 μl of the beads/membranes solution is added to each well. The assay plates are then sealed and incubated for 30 minutes at room temperature on an orbital shaker. The plates are allowed to settle for 16 hours and then counted on a TopCount scintillation counter (PE). […] Maximal % bound and IC50 are then determined for each test compound. 5 μg/well membrane together with 200 μg/well of PVT WGA SPA beads (GE #RPNG-0001) were suspended in a white 96 well plate with a final concentration of 50 μl/well in assay buffer (50 mM Tris, 10 mM MgCl2, and 2 mM EDTA). […] The plate is briefly mixed and incubated for 3-18 h at room temperature, before it is read on a MicroBeta plate counter (Perkin Elmer, MS, USA).

[5] = maximal % activity vs in-house partial agonist control

T3 sequence (Q8K3T4 whole entry): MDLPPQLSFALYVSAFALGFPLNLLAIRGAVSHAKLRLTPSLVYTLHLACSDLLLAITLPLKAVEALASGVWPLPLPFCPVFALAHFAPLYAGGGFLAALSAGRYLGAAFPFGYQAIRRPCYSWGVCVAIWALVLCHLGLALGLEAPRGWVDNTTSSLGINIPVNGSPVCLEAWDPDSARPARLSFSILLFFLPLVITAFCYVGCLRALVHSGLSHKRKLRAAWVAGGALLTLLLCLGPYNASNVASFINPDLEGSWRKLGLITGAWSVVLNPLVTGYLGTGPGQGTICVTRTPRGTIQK
T2 sequence (O14842 whole entry): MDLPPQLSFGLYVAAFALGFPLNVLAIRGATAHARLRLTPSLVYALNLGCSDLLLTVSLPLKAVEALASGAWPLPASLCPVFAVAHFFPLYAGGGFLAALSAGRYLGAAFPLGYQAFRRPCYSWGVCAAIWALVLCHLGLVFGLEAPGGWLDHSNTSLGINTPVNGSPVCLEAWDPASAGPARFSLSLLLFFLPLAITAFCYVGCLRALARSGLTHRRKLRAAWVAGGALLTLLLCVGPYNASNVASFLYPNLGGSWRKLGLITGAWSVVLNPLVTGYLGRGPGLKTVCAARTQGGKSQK
T1 sequence (Q76JU9 whole entry): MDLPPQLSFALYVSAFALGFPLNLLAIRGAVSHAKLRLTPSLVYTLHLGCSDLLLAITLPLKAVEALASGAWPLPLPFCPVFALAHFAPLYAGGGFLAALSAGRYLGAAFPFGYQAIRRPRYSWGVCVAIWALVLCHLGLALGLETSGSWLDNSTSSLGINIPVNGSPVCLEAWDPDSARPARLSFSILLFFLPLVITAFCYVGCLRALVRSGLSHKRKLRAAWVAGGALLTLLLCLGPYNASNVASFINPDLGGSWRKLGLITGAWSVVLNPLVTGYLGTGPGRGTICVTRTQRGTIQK

Q: Which “Mouse GPR40 Receptor Activation (%)” value ([1]; dose 1.50E-11 M) does the source give for `COc1ccc(F)c(-c2ccc([C@@H]3CCc4ccc([C@H](C5CC5)[C@H](C)C(=O)O)cc4O3)cc2)c1` [AP1] here?
A: Its value is 13%.

Q: What about the “Mouse GPR40 Receptor Activation (%)” value ([1]; dose 1.55E-08 M) of the same compound?
A: The value was 531%.

Q: And the “Mouse GPR40 Receptor Activation (%)” value ([1]; dose 2.43E-10 M)?
A: Its value is 207%.

Q: And the “Mouse GPR40 Receptor Activation (%)” value ([1]; dose 2.49E-07 M)?
A: The value was 540%.

Q: What about the “Mouse GPR40 Receptor Activation (%)” value ([1]; dose 3.89E-09 M) of the same compound?
A: The value was 508%.

Q: What about the “Mouse GPR40 Receptor Activation (%)” value ([1]; dose 4.00E-12 M) of the same compound?
A: Its value is -3.79%.

Q: And the “Mouse GPR40 Receptor Activation (%)” value ([1]; dose 6.10E-11 M)?
A: Its value is 72%.

Q: What about the “Mouse GPR40 Receptor Activation (%)” value ([1]; dose 6.22E-08 M) of the same compound?
A: The value was 489%.

Q: What about the “Mouse GPR40 Receptor Activation (%)” value ([1]; dose 9.72E-10 M) of the same compound?
A: The value was 327%.

Q: And the “%Act, Mouse GPR40, Functional Assay” value ([1]; individual determinations)?
A: Its value is 325% and 647% and 612% and 390% and 593% and 587% and 801% and 441% and 392% and 533%.

Q: And the EC50 ([1]; individual determinations, read-out: EC50 (nM), Mouse GPR40, Functional Assay)?
A: Its EC50 is 0.44 nM and 0.48 nM and 0.55 nM and 0.56 nM and 0.66 nM and 0.74 nM and 0.33 nM and 0.41 nM and 0.43 nM.

Q: And the “Efficacy (% Activation), Mouse” value [1, 5]?
A: The value was “(532%)”.

Q: And the EC50 ([1]; mean ± SD, n = 2–20, IP accumulation, read-out: Potency [EC50, nM] ± SD, Mouse)?
A: The EC50 was 0.51 ± 0.12 nM.

Q: And the “Human GPR40 Receptor Activation (%)” value ([2]; dose 1.50E-11 M)?
A: The value was 35%.

Q: And the “Human GPR40 Receptor Activation (%)” value ([2]; dose 1.55E-08 M)?
A: The value was 357%.

Q: And the “Human GPR40 Receptor Activation (%)” value ([2]; dose 2.43E-10 M)?
A: Its value is 231%.

Q: What about the “Human GPR40 Receptor Activation (%)” value ([2]; dose 2.49E-07 M) of the same compound?
A: Its value is 381%.

Q: And the “Human GPR40 Receptor Activation (%)” value ([2]; dose 3.89E-09 M)?
A: The value was 357%.

Q: And the “Human GPR40 Receptor Activation (%)” value ([2]; dose 4.00E-12 M)?
A: Its value is 5%.

Q: And the “Human GPR40 Receptor Activation (%)” value ([2]; dose 6.10E-11 M)?
A: Its value is 154%.

Q: And the “Human GPR40 Receptor Activation (%)” value ([2]; dose 6.22E-08 M)?
A: Its value is 356%.

Q: And the “Human GPR40 Receptor Activation (%)” value ([2]; dose 9.72E-10 M)?
A: The value was 323%.

Q: What about the “Human GPR40 Receptor Activation (%)” value ([2]; dose 9.95E-07 M) of the same compound?
A: Its value is 404%.

Q: And the “%Act, HUMAN GPR40, Functional Assay” value ([2]; individual determinations)?
A: Its value is 254% and 368% and 338% and 409% and 464% and 275% and 405% and 364% and 355%.

Q: And the EC50 ([2]; individual determinations, read-out: EC50 (nM), HUMAN GPR40, Functional Assay)?
A: Its EC50 is 0.13 nM and 0.14 nM and 0.18 nM and 0.19 nM and 0.22 nM and 0.08 nM and 0.09 nM and 0.12 nM.

Q: And the “Efficacy (% Activation), Human” value [2, 5]?
A: Its value is “(359%)”.

Q: What about the EC50 ([2]; mean ± SD, n = 2–20, IP accumulation, read-out: Potency [EC50, nM] ± SD, Human) of the same compound?
A: Its EC50 is 0.15 ± 0.05 nM.

Q: What about the “Rat GPR40 Receptor Activation (%)” value ([3]; dose 1.50E-11 M) of the same compound?
A: Its value is 7%.

Q: And the “Rat GPR40 Receptor Activation (%)” value ([3]; dose 1.55E-08 M)?
A: Its value is 588%.

Q: And the “Rat GPR40 Receptor Activation (%)” value ([3]; dose 2.43E-10 M)?
A: Its value is 161%.

Q: What about the “Rat GPR40 Receptor Activation (%)” value ([3]; dose 2.49E-07 M) of the same compound?
A: Its value is 616%.

Q: And the “Rat GPR40 Receptor Activation (%)” value ([3]; dose 3.89E-09 M)?
A: The value was 549%.

Q: And the “Rat GPR40 Receptor Activation (%)” value ([3]; dose 4.00E-12 M)?
A: Its value is 0.25%.

Q: What about the “Rat GPR40 Receptor Activation (%)” value ([3]; dose 6.10E-11 M) of the same compound?
A: The value was 52%.

Q: And the “Rat GPR40 Receptor Activation (%)” value ([3]; dose 6.22E-08 M)?
A: Its value is 567%.

Q: And the “Rat GPR40 Receptor Activation (%)” value ([3]; dose 9.72E-10 M)?
A: Its value is 357%.

Q: And the “Rat GPR40 Receptor Activation (%)” value ([3]; dose 9.95E-07 M)?
A: The value was 567%.

Q: What about the “%Act, Rat GPR40, Functional Assay” value ([3]; individual determinations) of the same compound?
A: Its value is 391% and 456% and 671% and 592% and 636% and 716% and 674% and 356% and 385% and 437%.

Q: And the EC50 ([3]; individual determinations, read-out: EC50 (nM), Rat GPR40, Functional Assay)?
A: The EC50 was 0.45 nM and 0.46 nM and 0.58 nM and 0.61 nM and 0.72 nM and 0.95 nM and 1.15 nM and 0.31 nM and 0.33 nM and 0.36 nM.

Q: And the “Efficacy (% Activation), Rat” value [3, 5]?
A: The value was “(531%)”.

Q: What about the EC50 ([3]; mean ± SD, n = 2–20, IP accumulation, read-out: Potency [EC50, nM] ± SD, Rat) of the same compound?
A: Its EC50 is 0.59 ± 0.28 nM.

Q: What about the “% Bound Normalized to 100” value ([4]; dose 0.318285 nM) of the same compound?
A: The value was 100.72%.

Q: What about the “%Bound” value ([4]; dose 0.318285 nM) of the same compound?
A: The value was 106.70%.

Q: And the “% Bound Normalized to 100” value ([4]; dose 1.00578 nM)?
A: Its value is 118.24%.

Q: And the “%Bound” value ([4]; dose 1.00578 nM)?
A: Its value is 124.21%.

Q: What about the “% Bound Normalized to 100” value ([4]; dose 3.17827 nM) of the same compound?
A: Its value is 131.70%.

Q: What about the “%Bound” value ([4]; dose 3.17827 nM) of the same compound?
A: Its value is 137.67%.

Q: And the “% Bound Normalized to 100” value ([4]; dose 10.0433 nM)?
A: The value was 152.63%.

Q: What about the “%Bound” value ([4]; dose 10.0433 nM) of the same compound?
A: The value was 158.61%.

Q: And the “% Bound Normalized to 100” value ([4]; dose 31.7369 nM)?
A: Its value is 164.17%.

Q: What about the “%Bound” value ([4]; dose 31.7369 nM) of the same compound?
A: Its value is 170.14%.

Q: What about the “% Bound Normalized to 100” value ([4]; dose 100.289 nM) of the same compound?
A: The value was 171.43%.

Q: And the “%Bound” value ([4]; dose 100.289 nM)?
A: Its value is 177.41%.

Q: What about the “% Bound Normalized to 100” value ([4]; dose 316.912 nM) of the same compound?
A: Its value is 183.61%.

Q: And the “%Bound” value ([4]; dose 316.912 nM)?
A: The value was 189.59%.

Q: What about the “% Bound Normalized to 100” value ([4]; dose 1001.44 nM) of the same compound?
A: The value was 174.85%.

Q: And the “%Bound” value ([4]; dose 1001.44 nM)?
A: Its value is 180.83%.

Q: And the “% Bound Normalized to 100” value ([4]; dose 3164.56 nM)?
A: The value was 169.51%.

Q: And the “%Bound” value ([4]; dose 3164.56 nM)?
A: The value was 175.49%.

Q: And the “% Bound Normalized to 100” value ([4]; dose 10000 nM)?
A: The value was 192.80%.

Q: What about the “%Bound” value ([4]; dose 10000 nM) of the same compound?
A: Its value is 198.77%.
